The subject of test [1] is cloned mammalian (mSlo or hSlo) BK channel. In words: Assay for BK channel openers: two-electrode voltage clamp of BK-mediated outward current in Xenopus oocytes. Type of test: cell-based. The settings on record: percent increase over BK current in controls, voltage step to +140 mV, IBTX-sensitive current. On the procedure: The ability of the compounds of the invention to open BK channels and increase whole-cell outward (K^+) BK-mediated currents was assessed under voltage-clamp conditions by determining their ability to increase cloned mammalian (mSlo or hSlo) BK-mediated outward current heterologously expressed in Xenopus oocytes [Butler, A., et al., Science 1993, 261, 221–224; Dworetzky, S. I., et al., Mol. Brain Res. 1994, 27, 189–193; Gribkoff, V. K., et al., Mol. Pharmacol. 1996, 50, 206–217]. The two BK constructs employed represent nearly structurally identical homologous proteins, and have proven to be pharmacologically indistinguishable in our tests. To isolate BK current from native (background, non-BK) current, the specific and potent BK channel-blocking toxin iberiotoxin (IBTX) [Galvez, A., et al., J. Biol. Chem. 1990, 265, 11083–11090] was employed at a supramaximal concentration, e.g., 50–100 nanomolar (“nM”). The relative contribution of BK channel-mediated current to total outward current was determined by subtraction of the current remaining in the presence of IBTX (non-BK current) from the current profiles obtained in all other experimental conditions (control, drug, and wash) [Gribkoff, V. K. et al., Mol. Pharmacol. 1996, 50, 206–217]. […] All compounds were tested in 5–10 oocytes and are reported at the indicated concentration of 20 micromolar (“μM”) (or as otherwise indicated); the effect of the selected compounds of the invention on BK current was expressed as the percent of control IBTX-sensitive current at a single transmembrane voltage (+140 mV) and is listed in Table 1. Recordings were accomplished using standard two-electrode voltage clamp techniques [Stuhmer, W., et al., Methods in Enzymology, 1992, 207, 319–339]; voltage-clamp protocols consisted of 500–750 milliseconds (“ms”) duration step depolarizations, from a holding potential of −60 mV, to a final voltage up to +140 mV in 20 mV steps. The experimental media (modified Barth's solution) consisted of millimolar (“mM”): NaCl (88), NaHCO3 (2.4), KCl (1.0), HEPES (10), MgSO4 (0.82), Ca(NO3)2 (0.33), CaCl2 (0.41); pH 7.5.

Test [2] deals with rabbit corpus cavernosum tissue. As to the kind of experiment: Relaxation of rabbit corpus cavernosum strips precontracted with phenylephrine. To be noted: Oryctolagus cuniculus; inhibition of phenylephrine (3 μM)-induced force as compared to vehicle control; read-out: % Inhibition of force (RCC strips). On the procedure: The ability of the compounds of the invention to relax rabbit corpus cavernosum tissue as a model for the treatment of erectile dysfunction is described as follows. New Zealand white rabbits (3.4–3.7 kg) were euthanized by sodium pentobarbital (100 mg/kg) overdose. The penis from each animal was rapidly removed and immersed in a cold oxygenated modified Krebs Henseleit bicarbonate buffer. The penis' outer tunica was removed and the corpus cavernosum smooth muscle obtained and cut into strips approximately 3–5 mm long. The strips were suspended in tissue baths containing physiological salt solution (see above), and allowed to equilibrate for at least one hour under resting tension of 1.0 gram. Isometric force was measured as described above. Tissue strips were stimulated with the α-agonist phenylephrine (3 μM) and allowed to reach a steady level of force prior to the addition of test compounds. The results are expressed as the percentage inhibition of phenylephrine-induced force as compared to vehicle control.

In test [3] the test system is rat small intestine tissue. In words: Relaxation of rat small intestine (ileum) segments. The arrangement: concentration or dose not given beside the values. The settings on record: integral of nifedipine-sensitive force, 30 min post-compound addition. From the text: The ability of the compounds of the invention to relax rat small intestine tissue as a model for the treatment of irritable bowel syndrome is described as follows. Male rats (Harlan, Sprague Dawley, 250–350 g) were sacrificed by decapitation. A portion of small intestine (ileum) was removed and the attached connective tissues and intestinal contents removed. The ileum was cut into segments of ≦1 cm in length. The segments were mounted longitudinally between fixed hooks in organ baths containing warm (37° C.) physiological salt solution (composition in mM: NaCl 118.4, KCl 4.7, KH2PO4 1.2, MgSO4 1.2, CaCl2 1.8, Glucose 10.1, NaHCO3 25; gassed with 95% O2/5% CO2, pH 7.4). A stable tension of ˜1.5 g was maintained in the tissue segments during the equilibration period of 45 minutes. Changes in muscle tension were measured with isometric force transducers (Grass, FT-03C) and recorded using AcqKnowledge data acquisition system (AcqKnowledge for MP100WS, Biopac Systems Inc., Goleta, Calif.). Compound or vehicle was added in the baths for 30 minutes. “Zero” active force was established at the end of the experiment using nifedipine (20 μM). The effects of compounds or vehicle on force was determined by measuring the integral of nifedipine-sensitive force (including resting tone and spontaneous contractions) pre- and 30 min post-compound (or vehicle) addition. Results are expressed as the percentage inhibition of force. DMSO vehicle inhibited force (integral) by −0.6±3.0% (n=25).

SMILES strings stand for the structures.

Take `O=C(CCN1CCN(c2ccccn2)CC1)Nc1ccc(Sc2c(-c3cc(Cl)ccc3O)c3cc(C(F)(F)F)ccc3[nH]c2=O)cc1` [Example 14, N-[4-[[4-(5-chloro-2-hydroxyphenyl)-1,2-dihydro-2-oxo-6-(trifluoromethyl)-3-quinolinyl]thio]phenyl]-4-(2-pyridinyl)-1-piperazinepropanamide]: the “% MaxiK opening” value in test [1] (at 1 μM) is 169^⋄ %. The inhibition in test [2] amounted to 37%. In test [3], the “% Inhibition of force (RSI strips)” value came to 24%.

`CN(C)CCN(C)CC(=O)Nc1ccc(Sc2c(-c3cc(Cl)ccc3O)c3cc(C(F)(F)F)ccc3[nH]c2=O)cc1` [Example 7, N-[4-[[4-(5-chloro-2-hydroxyphenyl)-1,2-dihydro-2-oxo-6-(trifluoromethyl)-3-quinolinyl]thio]phenyl]-2-[[2-(dimethylamino)ethyl]methylamino]acetamide]: the “% MaxiK opening” value in test [1] (at 20 μM) was 231%. The inhibition in test [2] came to 16%. For the same molecule, in test [3], the “% Inhibition of force (RSI strips)” value turned out to be 41%.

These data come from patent publication US7132542B2, “Compounds for the treatment of male erectile dysfunction” (Bristol-Myers Squibb Company, priority 2003, dated 2006).
